Test results as given in patent publication US9066923B2, “Methods for Alzheimer's disease treatment and cognitive enhancement” (Blanchette Rockefeller Neurosciences Institute, priority 2002, dated 2015).

How the values were obtained:
[1] = tested on: diacylglycerol-protein kinase C; details: aorta of diabetic rats and cultured rat smooth muscle cells exposed to elevated glucose (Kunisaki et al. 1994); cited from earlier work
[2] = tested on: patients suffering from moderately advanced Alzheimer's Disease; details: 2000 IU/day (Burke et al. 1999); cited from earlier work
sAPPα secretion = sAPPα secretion in cultured human skin fibroblasts (immunoblot, antibody 6E10); type: cell-based
Procedure: (§1) Cultured skin fibroblasts were obtained from the Coriell Cell Repositories and grown using the general guidelines established for their culture with slight modifications (Cristofalo & Carptentier, 1988; Hirashima et al., 1996). The culture medium in which cells were grown was Dulbecco's modified Eagle's medium (GIBCO) supplemented with 10% calf serum (Biofluids, Inc.). Fibroblasts from control cell lines (AC), cases AG07141 and AG06241, and a familial AD (FAD) case (AG06848) were utilized.

PKCα isozyme [3] = biological target: T1, PKCα isozyme (Homo sapiens, UniProt P17252); assay: PKC translocation to the cell membrane (immunoblot of cytosolic and membranous fractions of fibroblasts); type: cell-based
T1 construct: endogenous in cells; host or cells: cultured skin fibroblasts from Coriell Cell Repositories (AG07141, AG06241, AG06848)
Procedure: as §1
Immunoblot experiments were conducted using well-established procedures (Dunbar, 1994). Cells were grown to confluency (˜90%) in 6 cm Petri dishes. […] Fibroblasts were washed twice with ice-cold PBS, scraped in PBS, and collected by low-speed centrifugation. The pellets were re-suspended in the following homogenization buffer: 20 mM Tris-HCl, pH 7.5, 2 mM EDTA, 2 mM EGTA, 5 mM DTT, 0.32 M sucrose, and protease inhibitor cocktail (Sigma). Hemogenates were obtained by sonication, and centrifuged at […] for 20 minutes, and the supernatants were used as the cytosolic fraction. The pellets were homogenized in the same buffer containing 1.0% Triton X-100, incubated in ice for 45 minutes, and centrifuged at ˜12,000 g for 20 minutes. The supernatant from this batch was used as the membranous fraction. After protein determination, 20 μg of protein were diluted in 2× electrophoresis sample buffer (Novex), boiled for 5 minutes, run on 10% acrylamide gel, and transferred electrophoretically to a PVDF membrane. The membrane was saturated with 5% milk blocker by incubating it at room temperature for an hour. The primary antibody for PKC isoform (Transduction Laboratories) was diluted (1:1000) in blocking solution and incubated with the membrane overnight at 4° C. After incubation with the secondary antibody, alkaline phosphatase anti-mouse IgG (Vector Laboratories), the membrane was developed using a chemoluminescent substrate (Vector Laboratories) per the manufacturer's instructions. The band intensities were quantified by densitometry using a BioRad GS-800 calibrated scanning densitometer and Multianalyst software (BioRad).

rats = assay: Morris Water Maze; type: in vivo, rat; details: intraventricular injection
Description: (See, for example, Hollister, L. E., 1990, Pharmacopsychiat., 23, (Suppl II) 33-36). The available animal models of memory loss and impaired learning involve measuring the ability of animals to remember a discrete event. These tests include the Morris Water Maze and the passive avoidance procedure. In the Morris Water Maze, animals are allowed to swim in a tank divided into four quadrants, only one of which has a safety platform beneath the water. The platform is removed and the animals are tested for how long they search the correct quadrant verse the incorrect quadrants. In the passive avoidance procedure the animal remembers the distinctive environment in which a mild electric shock is delivered and avoids it on a second occasion. A variant of the passive avoidance procedure makes use of a rodent's preference for dark enclosed environments over light open ones. Further discussion can be found in Crawley, J. N., 1981, Pharmacol. Biochem. Behav., 15, 695-699; Costall, B. et al, 1987, Neuropharmacol., 26, 195-200; Costall, B. et al., 1989, Pharmacol. Biochem. Behav., 32, 777-785; Barnes, J. M. et al., 1989, Br. J. Pharmacol., 98 (Suppl) 693P; Barnes, J. M. et al. 1990, Pharmacol. Biochem. Behav., 35, 955-962.
In the present example, rats were injected intraventricularly with bryostatin-1 and trained for 4 days (following standard protocols). Retention was assessed on the 5th day. […] Acquisition of memory was measured as time spent in the relevant quadrant (5th day). […] (See, FIG. 4). Bryostatin is capable of being used at concentrations to improve cognition that are 300 to 300,000 times lower than the concentration used to treat tumors.

PKCα isozyme [4] = biological target: T1, PKCα isozyme; details: cited from earlier work
patients = details: cited from earlier work
tumor promotion = details: cited from earlier work

Row | Compound | diacylglycerol-protein kinase C activation [1] | cognitive abilities [2] | mortality and morbidity [2] | sAPP secretion (sAPPα secretion; 0.1 nM bryostatin-1, compared to vehicle alone and benzolactam) | sAPPα secretion, efficacy compared with controls and Benzolactam (FIG. 1) (sAPPα secretion; FIG. 1) | sAPP secretion (sAPPα secretion; bryostatin at 0.01 nM) | activation of PKC (immunoblot, FIG. 7) (PKCα isozyme [3]; 0.1 nM bryostatin-1, 30 minutes after delivery) | response demonstrating the activation of PKC (FIG. 7) (PKCα isozyme [3]; AD cells, FIG. 7) | time of maximal PKC translocation to the cell membrane (PKC activation) (PKCα isozyme [3]; bryostatin) [min] | PKC translocation after the maximum, compared with basal level (PKCα isozyme [3]; partial decline after 30 min, followed up to six hours) | memory or retention: time spent in the relevant quadrant (rats; 5th day, versus sham injection) | time to improved cognition compared to control rats (rats; FIG. 4) [days] | learning: escape latency from trial to trial (rats; trained for 4 days, versus sham injection) | shape of the dose response curve as PKC activator (PKCα isozyme [4]) | tolerability (patients; 20 μg/m^2 once per week for 3 weeks (Weitman et al. 1999)) | maximum-tolerated dose (patients; 1 hour i.v. infusion once every 2 weeks for 6 weeks (Prendville et al. 1993)) [μg/m^2] | maximum tolerated dose (patients; once per week for 8 weeks (Jayson et al. 1995)) [μg/m^2] | tumor promotion activity (tumor promotion)
1 | vitamin E | normalize diacylglycerol-protein kinase C activation | did not enhance cognitive abilities | reduced mortality and morbidity | – | – | – | – | – | – | – | – | – | – | – | – | – | – | –
2 | CCC/C=C/C=C/C(=O)O[C@H]1/C(=C/C(=O)OC)C[C@H]2C[C@H]([C@@H](C)O)OC(=O)C[C@H](O)C[C@@H]3C[C@H](OC(C)=O)C(C)(C)[C@](O)(C[C@@H]4C/C(=C/C(=O)OC)C[C@H](/C=C/C(C)(C)[C@]1(O)O2)O4)O3 [bryostatin-1] | – | – | – | dramatic increase of sAPP secretion | greater efficacy at lower concentrations than controls and Benzolactam | still proved effective to increase sAPP secretion | easily detectable | powerful response | 30 | remains higher than basal translocation levels up to six hours | significantly enhanced | ≤ 2 | significantly lower | biphasic | well tolerated and were not associated with myalgia or other side effects | 50 | 25 | devoid of tumor promotion activity
